The target in one assay is T1, NirBac1.2 (Anaeromyxobacter sp. Fw109-5, UniProt A7HIG5).
T1 sequence (A7HIG5 1-299): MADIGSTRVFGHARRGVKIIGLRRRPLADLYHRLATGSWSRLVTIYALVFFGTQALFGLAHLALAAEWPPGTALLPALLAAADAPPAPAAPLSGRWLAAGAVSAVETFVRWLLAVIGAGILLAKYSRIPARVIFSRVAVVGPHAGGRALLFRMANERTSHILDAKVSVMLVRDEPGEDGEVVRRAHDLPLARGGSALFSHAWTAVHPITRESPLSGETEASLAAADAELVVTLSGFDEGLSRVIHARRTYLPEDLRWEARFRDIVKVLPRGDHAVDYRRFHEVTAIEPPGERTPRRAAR
Put plainly: […]+ uptake into proteoliposomes. Conditions: POPG as part of liposome lipid, 25% vs 50% of total; Na+ driven; activator. Type of assay: biochemical.

A further assay deals with T2, NirBac1.1 (Anaeromyxobacter dehalogenans, UniProt Q2IH88).
T2 sequence (Q2IH88 1-305): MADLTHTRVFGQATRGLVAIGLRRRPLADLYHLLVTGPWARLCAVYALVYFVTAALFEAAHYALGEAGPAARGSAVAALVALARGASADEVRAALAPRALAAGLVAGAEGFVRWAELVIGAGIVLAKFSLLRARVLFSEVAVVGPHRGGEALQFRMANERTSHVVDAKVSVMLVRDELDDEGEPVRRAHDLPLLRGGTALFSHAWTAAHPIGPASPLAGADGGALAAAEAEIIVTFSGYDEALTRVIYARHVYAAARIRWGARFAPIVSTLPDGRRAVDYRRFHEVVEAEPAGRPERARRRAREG
The assay can be described thus: […]+ uptake into proteoliposomes. Type of assay: biochemical. The conditions noted are these: POPG as part of liposome lipid, 25% vs 50% of total; Na+ driven; activator.

For assay [1], the target named is NirBac1.1 (Anaeromyxobacter dehalogenans 2CP-C). The assay can be described thus: SEC + native gel or EMSA; purified channel in detergent, non-denaturing conditions; Superdex200; oligomeric state (Supplementary Figure S2B,C).
In assay [2] the target is NirBac1.2 (Anaeromyxobacter sp. Fw109-5). The description is as above.

The results in this text go back to publication PMC4607889, “Modular Design of the Selectivity Filter Pore Loop in a Novel Family of Prokaryotic ‘Inward Rectifier’ (NirBac) channels” (Scientific Reports, 2015).

For the compound `CCCCCCCC/C=C\CCCCCCCC(=O)O[C@H](COC(=O)CCCCCCCCCCCCCCC)COP(=O)(O)OCC(O)CO` (stereo partly shown) [POPG], the “fold flux increase, 25% to 50% POPG” value on NirBac1.2 and on NirBac1.1 was above 5 fold in each case.

The stoichiometry N is the number of molecules, sites or subunits per partner or assembly. On to NirBac1.1 (natural protein), for which the stoichiometry N in assay [1] is 4.

For the compound NirBac1.2 (natural protein), the stoichiometry N in assay [2] came out at 4.
